According to patent US20090270309A1, “USE OF LACTOFERRIN FRAGMENTS AND HYDROLYSATES” (priority 2005, published 2009):

Tested on: primary rat osteoblasts
Test: Proliferation of primary rat osteoblasts (cell counts and [3H]-thymidine incorporation)
Type: cell-based
Conditions: for Mitogenic / proliferative effect on primary osteoblasts (in words): significantly different from control by ANOVA, post hoc Dunnett's test
Experimental: Osteoblasts were isolated by collagenase digestion from 20-day fetal rat ? viously described by Lowe, et al. (1991). Calvariae were dissected aseptically, and the frontal and parietal bones were stripped of their periosteum. Only the central portions of the bones, free from suture tissue, were collected. The calvariae were treated twice with phosphate buffered saline (PBS) containing 3 mM EDTA (pH 7.4) for 15 minutes at 37° C. in a shaking water bath. After washing once in PBS, the calvariae were treated twice with 3 ml of 1 mg/ml collagenase for 7 minutes at 37° C. After discarding the supernatants from digestions I and II, the calvariae were treated further two times with 3 ml of 2 mg/ml collagenase (30 mins, 37° C.). The supernatants of digestions III and IV were pooled, centrifuged, and the cells washed in Dulbecco's modified Eagle's medium (DME) with 10% fetal calf serum (FCS), suspended in DME/10% FCS, and placed in […] flasks. The cells were incubated under 5% CO2 and 95% air at 37° C. Confluence was reached by 5-6 days, at which time the cells were subcultured. After trypsinization using trypsin-EDTA (0.05%/0.53 mM), the cells were rinsed in minimum essential medium (MEM) with 5% FCS and resuspended in a fresh medium, then seeded at 5×10^4 cells/ml in 24-well plates (0.5 ml cell suspension per well, i.e., 1.4×10^4 cells/cm^2).
Proliferation studies (cell counts and thymidine incorporation) were performed both in actively growing and non-actively growing cell populations. To produce actively growing cells, sub-confluent populations (24 h after subculturing) were placed in fresh MEM containing 1% FCS and a lactoferrin fragment sample (see Table 1 below). To produce non-actively growing cells, sub-confluent populations were placed in serum-free medium with 0.1% bovine serum albumin plus a lactoferrin fragment sample. Cell numbers were analyzed at 6, 24, and 48 hours after the addition of lactoferrin fragment samples. The cell numbers were determined after detaching cells from the wells by exposure to trypsin/EDTA (0.05%/0.53 mM) for approximately 5 minutes at 37° C. Counting was performed in a haemocytometer chamber. [3H]-thymidine incorporation into actively growing and non-actively growing cells was assessed by pulsing the cells with [3H]-thymidine (1 μCi/well) two hours before the end of the incubation. The experiment was terminated at 6, 24, or 48 hours by washing the cells in MEM containing cold thymidine followed by the addition of 10% trichloroacetic acid. The precipitate was washed twice with ethanol:ether (3:1), and the wells desiccated at room temperature. The ? redissolved in 2 M KOH at 55° C. for 30 min, neutralized with 1 M HCl, and an aliquot counted for radioactivity. For both cell counts and thymidine incorporation, each experiment at each time point was performed at least 4 different times using experimental groups consisting of at least 6 wells.
The osteogenic response seen above was compared with that of insulin-like growth factor 1 (IGF-1), a well-recognized osteoblast mitogen. The magnitudes of response of the lactoferrin fragments were similar to IGF-1 in the same osteoblast cell culture system.

[1] = primary rat osteoblasts, Table 1

| Sequence | Mitogenic / proliferative effect on primary osteoblasts (in words) (figure legends) | Dose (ug/mL): minimum dose range that stimulates osteoblast proliferation [1] [µg/mL] | Concentration at which osteoblast proliferation is significantly different from control (figure legends, post hoc Dunnett's test P<0.05 or P<0.01) [µg/mL] | Dose (M): minimum dose range that stimulates osteoblast proliferation (primary rat osteoblasts, Table 1, printed as orders of magnitude, e.g. 10^−7/8) |
| --- | --- | --- | --- | --- |
| FKCRRWQWRMKKLGA [SEQ ID NO. 17] | mitogenic to primary osteoblasts | 0.1 to 10 |  |  |
| FKCRRWQWRMKKLGAPSITCVRRAFA [SEQ ID NO. 14] | mitogenic to primary osteoblasts | 0.01 to 1.0 | 0.01 |  |
| RRWQWRMKKLG [SEQ ID NO. 16] |  | 0.1 to 10 |  |  |
| WKLLSKAQEKFGKNKS (listed as Bos taurus) [SEQ ID NO. 33] | mitogenic to primary osteoblasts | 100 |  | 10^−5 M |
